In one experiment the test system is NF-κB. Put plainly: NF-κB luciferase reporter assay in RAW 264.7 macrophages. It counts as cell-based. Conditions: for IC50: Mus musculus. How it is done:
RAW 264.7 cells stably expressing a 3×NFkB response element-drive luciferase reporter were seeded into 96 well plates in sera-free medium (Optimem) 18 hours prior to compound application. Compounds of the invention were prepared by first making 100 mM stock solutions in EtOH. […] Cells were then stimulated with 200 ng/ml LPS or vehicle control for 3 hours in the presence of the compounds of the invention. A set of six vehicles was left unstimulated with LPS in order to measure the assay floor. AlamarBlue viability dye (Invitrogen) was added to cells simultaneously with the delivery of LPS (final AlamarBlue concentration of 10%). After the 3 h incubation period with LPS, cell viability was measured by reading fluorescence (excitation 550 nm, emission 595 nm) with a Perkin Elmer Victor V plate reader. Then cell media was aspirated from each well. Luciferase signal was then developed by addition of the Britelite Plus reagent (Perkin Elmer). Luciferase activity was measured with the Perkin Elmer Victor V plate reader. NE-κB activity was expressed as a percent of the vehicle control wells (stimulated with LPS). Compounds were tested at 6 dose point titrations in triplicate to determine IC50 values.

In another experiment the test system is HIV-1IIIB strain. Briefly: HIV-1 cytoprotection assay (CEM-SS cells, MTS dye reduction). It counts as cell-based. The protocol:
Cytoprotection assays are commonly used for evaluating the antiviral efficacy of test compounds against a variety of viruses in different cell lines. […] Briefly, virus and cells are mixed in the presence of test compound and incubated for 6 days. […] Each assay plate contains cell control wells (cells only), virus control wells (cells plus virus), compound toxicity control wells (cells plus compound only), compound colorimetric control wells (compound only), as well as experimental wells (compound plus cells plus virus). Cytoprotection and compound cytotoxicity are assessed by MTS (CellTiter®96 Reagent, Promega, Madison Wis.) dye reduction. […] Each assay includes the HIV reverse transcriptase inhibitor AZT as a positive control.
CEM-SS cells were obtained from the NIH AIDS Research and Reference Reagent Program and are routinely passaged in T-75 flasks using standard tissue culture techniques based on the specifications provided by the supplier. On the day preceding the assay, the cells are split 1:2 to assure they are in an exponential growth phase at the time of infection. Total cell number and percent viability determinations are performed using a hemacytometer and trypan blue exclusion. […] The cells are re-suspended at 5×10^4 cells/mL in tissue culture medium and added to the drug-containing 96-well microtiter plates in a volume of 50 μl.
The viruses used for this assay are CXCR4-tropic laboratory virus strains. The most commonly used strains are HIV-1RF and HIV-1IIIB (each obtained from the NIH AIDS Research and Reference Reagent Program). For each assay, a pre-titered aliquot of virus is removed from the freezer (−80° C.) and allowed to thaw slowly to room temperature in a biological safety cabinet. The virus is re-suspended and diluted into tissue culture medium such that the amount of virus added to each well in a volume of 50 μl is the amount determined to give between 85 to 95% cell killing at 6 days post-infection.
Each plate contains cell control wells (cells only), virus control wells (cells plus virus), drug cytotoxicity wells (cells plus drug only), drug colorimetric control wells (drug only), background control wells (media only), as well as experimental wells (drug plus cells plus virus). Samples are evaluated for antiviral efficacy with triplicate measurements using 6 concentrations at half-log dilutions (12 concentrations can also be performed) in order to determine IC50 values and with duplicate measurements to determine cellular cytotoxicity, if detectable.
100% EtOH is added to the compounds of the invention such that the EtOH stock concentration is 50 mM. […] (VWR Ultrasonics Cleaner, Model #B8500A-DTH with “Sonics Power” set to HI); e) The 1:2 serial dilutions of the 1 mM 10× stock solution with FBS/2% EtOH are prepared such that the concentrations of the 10× stock solutions are 1 mM, 0.5 mM, 0.25 mM, etc., in FBS with 2% EtOH. Medium is aspirated off cells and replaced with serum free medium.

Setting [1] is: RAW264.7, RAW 264.7 reporter cells, 200 ng/ml LPS, 3 hours, read-out: NF-kB inhibitory activity IC50.
[2] abbreviates: RAW 264.7 reporter cells, 200 ng/ml LPS, 3 hours.
Setting [3] is: RAW264.7, 3 h, read-out: NF-kB inhibitory activity IC50 μM.
Setting [4] is: Human immunodeficiency virus 1, IIIB, CEM-SS, 144 h, read-out: IC50 HIV-1IIIB strain (nM).
Where [5] appears, read: CEM-SS cells, HIV-1 IIIB strain, 6 days, MTS.

Experimental findings from patent publication US20140288025A1, “FATTY ACID ANTIVIRAL CONJUGATES AND THEIR USES” (Catabasis Pharmaceuticals, Inc., priority 2013, published 2014) are described below.

Each structure is given as a SMILES string. Like-named read-outs stand apart in the source and are kept apart here.

As to `Cc1cn([C@H]2C[C@H](N=[N+]=[N-])[C@@H](CO)O2)c(=O)[nH]c1=O` [Zidovudine, reference compound], the IC50 with NF-κB (setting [1]) is over 200 µM.
For `CC/C=C\C/C=C\C/C=C\C/C=C\C/C=C\C/C=C\CCC(=O)Nc1ncc2ncn(CCC(CO)CO)c2n1` [Example V-11, (4Z,7Z,10Z,13Z,16Z,19Z)—N-(9-(4-hydroxy-3-(hydroxymethyl)butyl)-9H-purin-2-yl)docosa-4,7,10,13,16,19-hexaenamide], the IC50 in the experiment on NF-κB (setting [1]) was 50 to 200 µM.
Take `CC(=O)OCC(CCn1cnc2cnc(N)nc21)COC(C)=O` [Famciclovir, reference compound]: the concentration for half-maximal inhibition (IC50) in the experiment with NF-κB (setting [1]) was over 200 µM.
`CC/C=C\C/C=C\C/C=C\C/C=C\C/C=C\C/C=C\CCC(=O)NCCNC(=O)OC[C@H]1O[C@H](n2cc(C)c(=O)[nH]c2=O)C[C@@H]1N=[N+]=[N-]` [Example V-5, ((2S,3S,5S)-3-azido-5-(5-methyl-2,4-dioxo-3,4-dihydropyrimidin-1(2H)-yl)tetrahydrofuran-2-yl)methyl (2-((4Z,7Z,10Z,13Z,16Z,19Z)-docosa-4,7,10,13,16,19-hexaenamido)ethyl)carbamate]: the IC50 in the experiment on HIV-1IIIB strain (Human immunodeficiency virus 1, 144 h, CEM-SS cells, HIV-1 IIIB strain, 6 days, MTS, read-out: IC50 HIV-1IIIB strain) was over 100 nM. In addition, the “NF-kB inhibitory activity IC50 μM” value on NF-κB (setting [2]) is “+ +”.
`CC/C=C\C/C=C\C/C=C\C/C=C\C/C=C\C/C=C\CCC(=O)NCCN(C)CCNC(=O)OC[C@H]1O[C@@H](n2ccc(N)nc2=O)[C@](C)(F)[C@@H]1O` [Example V-30, ((2R,3R,4R,5R)-5-(4-amino-2-oxopyrimidin-1(2H)-yl)-4-fluoro-3-hydroxy-4-methyltetrahydrofuran-2-yl)methyl (2-((2-((4Z,7Z,10Z,13Z,16Z,19Z)-docosa-4,7,10,13,16,19-hexaenamido)ethyl)(methyl)amino)ethyl)carbamate]: the IC50 in the experiment on NF-κB (setting [1]) is under 50 µM.
For the compound `C=C1[C@H](CO)[C@@H](O)C[C@@H]1n1cnc2c(=O)[nH]c(N)nc21` [Entecavir, entecavir, reference compound], the IC50 in the experiment with NF-κB (setting [1]) was over 200 µM.
The same measure, in the same setting: as for `CC/C=C\C/C=C\C/C=C\C/C=C\C/C=C\C/C=C\CCC(=O)N[C@H](C(=O)OC[C@H]1O[C@H](n2cc(C)c(=O)[nH]c2=O)C[C@@H]1N=[N+]=[N-])C(C)C` [Example V-9, (S)-((2S,3S,5S)-3-azido-5-(5-methyl-2,4-dioxo-3,4-dihydropyrimidin-1(2H)-yl)tetrahydrofuran-2-yl)methyl 2-((4Z,7Z,10Z,13Z,16Z,19Z)-docosa-4,7,10,13,16,19-hexaenamido)-3-methylbutanoate], the figure is 50 to 200 µM.
Still for that read-out and setting: with `CC/C=C\C/C=C\C/C=C\C/C=C\C/C=C\C/C=C\CCC(=O)NCCOCCNC(=O)OC[C@H]1O[C@H](n2cc(C)c(=O)[nH]c2=O)C[C@@H]1N=[N+]=[N-]` [Example V-8, ((2S,3S,5S)-3-azido-5-(5-methyl-2,4-dioxo-3,4-dihydropyrimidin-1(2H)-yl)tetrahydrofuran-2-yl)methyl (2-(2-((4Z,7Z,10Z,13Z,16Z,19Z)-docosa-4,7,10,13,16,19-hexaenamido)ethoxy)ethyl)carbamate] the figure was 50 to 200 µM.
Take `CC/C=C\C/C=C\C/C=C\C/C=C\C/C=C\CCCC(=O)NCCNP(=O)(OC)OC[C@@H]1O[C@H](n2ccc(N)nc2=O)CS1` (stereo partly drawn) [II-70, ((2R,5S)-5-(4-amino-2-oxopyrimidin-1(2H)-yl)-1,3-oxathiolan-2-yl)methyl methyl (2-((5Z,8Z,11Z,14Z,17Z)-icosa-5,8,11,14,17-pentaenamido)ethyl)phosphoramidate]: in the experiment on NF-κB (setting [3]), the IC50 fell in the range of 50 to 200 µM.
Regarding `CC/C=C\C/C=C\C/C=C\C/C=C\C/C=C\C/C=C\CCC(=O)NCCNP(=O)(OC[C@H]1O[C@H](n2cc(C)c(=O)[nH]c2=O)C[C@@H]1N=[N+]=[N-])Oc1ccccc1` (stereo partly drawn) [II-25, ((2S,3S,5S)-3-azido-5-(5-methyl-2,4-dioxo-3,4-dihydropyrimidin-1(2H)-yl)tetrahydrofuran-2-yl)methyl phenyl (2-((4Z,7Z,10Z,13Z,16Z,19Z)-docosa-4,7,10,13,16,19-hexaenamido)ethyl)phosphoramidate], in the experiment on HIV-1IIIB strain (setting [4]), the half-maximal inhibitory concentration (IC50) was under 100 nM. Besides, the “NF-kB inhibitory activity IC50 μM” value at NF-κB (setting [2]) is listed as “+ +”.
`CC/C=C\C/C=C\C/C=C\C/C=C\C/C=C\CCCC(=O)Nc1ccc(S(=O)(=O)N(CC(C)C)C[C@@H](O)[C@H](Cc2ccccc2)NC(=O)O[C@H]2CO[C@H]3OCC[C@H]32)cc1` [VII-2, (3R,3aS,6aR)-hexahydrofuro[2,3-b]furan-3-yl((2S,3R)-3-hydroxy-4-(4-((5Z,8Z,11Z,14Z,17Z)-icosa-5,8,11,14,17-pentaenamido)-N-isobutylphenylsulfonamido)-1-phenylbutan-2-yl)carbamate]: the “IC50 HIV-1IIIB strain (nM)” value in the experiment with HIV-1IIIB strain (setting [5]) is recorded as “+ ++”. For the same compound, the half-maximal inhibitory concentration (IC50) in the experiment on NF-κB (setting [1]) was under 50 µM.
For the compound `CC(C)CN(C[C@@H](O)[C@H](Cc1ccccc1)NC(=O)O[C@H]1CO[C@H]2OCC[C@H]21)S(=O)(=O)c1ccc(N)cc1` [Darunavir, darunavir, reference compound], in the experiment with NF-κB (setting [3]), the concentration for half-maximal inhibition (IC50) was over 200 µM.
With `CC/C=C\C/C=C\C/C=C\C/C=C\C/C=C\CCCC(=O)Nc1ncc2ncn(CCC(COC(C)=O)COC(C)=O)c2n1` [Example V-12, 2-(2-(2-((5Z,8Z,11Z,14Z,17Z)-icosa-5,8,11,14,17-pentaenamido)-9H-purin-9-yl)ethyl)propane-1,3-diyl diacetate], the 50% inhibitory concentration (IC50) in the experiment with NF-κB (setting [1]) fell in the range of 50 to 200 µM.
The same measure, in the same setting: with `CC/C=C\C/C=C\C/C=C\C/C=C\C/C=C\C/C=C\CCC(=O)Nc1ncc2ncn(CCC(COC(C)=O)COC(C)=O)c2n1` [Example V-10, 2-(2-(2-((4Z,7Z,10Z,13Z,16Z,19Z)-docosa-4,7,10,13,16,19-hexaenamido)-9H-purin-9-yl)ethyl)propane-1,3-diyl diacetate] the figure was 50 to 200 µM.
With `CC/C=C\C/C=C\C/C=C\C/C=C\C/C=C\CCCC(=O)NCCNP(=O)(OC)OC[C@H]1O[C@H](n2cc(C)c(=O)[nH]c2=O)C[C@@H]1N=[N+]=[N-]` (stereo partly drawn) [II-30, ((2S,3S,5S)-3-azido-5-(5-methyl-2,4-dioxo-3,4-dihydropyrimidin-1(2H)-yl)tetrahydrofuran-2-yl)methyl methyl (2-((5Z,8Z,11Z,14Z,17Z)-icosa-5,8,11,14,17-pentaenamido)ethyl)phosphoramidate], in the experiment on HIV-1IIIB strain (setting [4]), the IC50 was over 100 nM. Moreover, at NF-κB (setting [2]), the “NF-kB inhibitory activity IC50 μM” value is listed as “+ +”.
Take `Nc1ccn([C@@H]2CS[C@H](CO)O2)c(=O)n1` [Lamivudine, lamivudine, reference compound]: the IC50 in the experiment with NF-κB (setting [1]) is over 200 µM.
On to `CC/C=C\C/C=C\C/C=C\C/C=C\C/C=C\C/C=C\CCC(=O)Nc1ccc(S(=O)(=O)N(CC(C)C)C[C@@H](O)[C@H](Cc2ccccc2)NC(=O)O[C@H]2CO[C@H]3OCC[C@H]32)cc1` [VII-1, (3R,3aS,6aR)-hexahydrofuro[2,3-b]furan-3-yl ((2S,3R)-4-(4-((4Z,7Z,10Z,13Z,16Z,19Z)-docosa-4,7,10,13,16,19-hexaenamido)-N-isobutylphenylsulfonamido)-3-hydroxy-1-phenylbutan-2-yl)carbamate], for which, in the experiment on HIV-1IIIB strain (setting [5]), the “IC50 HIV-1IIIB strain (nM)” value is given as “+ ++”. Moreover, the IC50 with NF-κB (setting [3]) was 50 to 200 µM.
